The record followed here is PMC4026528 (PLoS ONE, 2014).

Common to all, as to assay type: cell-based, human
In test [1] the test system is U2OS (osteosarcoma) cells. Briefly: Soft agar assay (anchorage-independent growth), U2OS. Particulars: Homo sapiens. Here is the method: (§1) Soft agar assay and analysis was carried out as previously described. For scratch assay, confluent monolayer of U2OS and HT-1080 cells were subjected to scratch using a sterile pipette tip. Wounded monolayers were washed to remove debris and incubated with SEN461 at different concentrations for 20 hours. After the incubation period, images were taken under an Axiovert 200M (Zeiss) microscope equipped with a CCD camera, and the gap width was measured using MetaMorph 6.3 software (Universal Imaging Corp.) to calculate the area covered by cells (pixels unit). The tube formation assay was performed using growth factor-reduced Matrigel from BD (BD Biosciences; San Jose, CA, USA). Matrigel was thawed overnight at 4°C and was diluted (1∶1) with phenol red-free DMEM without serum. 100 µl of the diluted matrigel was used to coat the wells of a 96 well plate and was allowed to polymerize for 2 hours at 37°C. After equilibrating the gel with the complete growth medium, 15×10^3 cells were seeded in each well and incubated for 20 hours. The tube formation was monitored under a phase contrast microscope (Axiovert 200, Zeiss) and imaged using MetaMorph system (Universal Imaging Corp).

In test [2] the test system is HT-1080 (fibrosarcoma) cells. Briefly: Soft agar assay (anchorage-independent growth), HT-1080. Particulars: Homo sapiens. The protocol: as §1
Test [3] has as its system Wnt target gene mRNA in HT-1080 cells. Nature of the test: Quantitative RT-PCR of Wnt target genes in HT-1080. As to conditions: HT-1080, overnight, 10 µmol/L. The protocol: RNA extraction and quantitative RT-PCR (qPCR) expression analysis was performed as described previously. Gene expression analysis was performed using the human housekeeping gene RPL13A. Primers for the hAXIN2, hCDC25A, hc-MYC, hFZD4, hDVL2, hCSNK1G and hVEGF-A were the following: Fw: 5′-CAAGGGCCAGGTCACCAA-3′ Rv: 5′-CCCCCAACCCATCTTCGT-3′; Fw: 5′-[…]-3′ Rv: 5′-[…]-3′; Fw: 5′-GGCTCCTGGCAAAAGGTCA-3′ Rv: 5′-[…]-3′; Fw: 5′-[…]-3′ Rv: 5′-[…]-3′; Fw: 5′-[…]-3′ Rv: 5′-GTCTCCCCGCTCATTGCTC-3′; Fw: 5′-[…]-3′ Rv: 5′-[…]-3′; Fw: 5′-[…]-3′ Rv: 5′-[…]-3′.

Test [4] relates to Axin1, c-Myc, p21 protein in HT-1080 cells. Briefly: Western blotting in HT-1080. As to conditions: HT-1080, overnight. (Immunoblotting shows a protein as a band on a membrane.)
Another test concerns HT-1080 cells. Briefly: Tube formation assay, HT-1080. Here is the method:
as §1, with “After equilibrating the gel with the complete growth medium, 15×10^3 cells were seeded in each well and incubated for 20 hours.” left out

In general, IC50 refers to the concentration at which inhibition is half-maximal. Read a high IC50 as weaker potency in that assay. Take `Oc1nc(-c2ccc(C(F)(F)F)cc2)nc2c1CSCC2` [XAV939, reference compound]: the IC50 in test [1] came out at 200 nM; in test [2] it was 1900 nM. In addition, the “c-MYC mRNA” value in test [3] is reported as “comparable activity”. Also, the c-Myc protein level result in test [4] is reported as “did not affect c-Myc protein level”. Moreover, the tubule-formation activity result in the test with HT-1080 cells (HT-1080, 24 hours exposure, vs DMSO) was “did not produce any change”.
In the case of `Cc1ccc(C(=O)Nc2ccc(S(=O)(=O)O)c3cc(S(=O)(=O)O)cc(S(=O)(=O)O)c23)cc1NC(=O)c1cccc(NC(=O)Nc2cccc(C(=O)Nc3cc(C(=O)Nc4ccc(S(=O)(=O)O)c5cc(S(=O)(=O)O)cc(S(=O)(=O)O)c45)ccc3C)c2)c1` [Suramin], the tubule-formation activity result with HT-1080 cells (HT-1080, 3 µmol/L, data not shown) was “complete abrogation of tubule formation”.
